Assay results taken from ChEMBL document CHEMBL1133207, “Syntheses and antifilarial profile of 7-chloro-4-(substituted amino) quinolines: a new class of antifilarial agents” (2000).
Active and inactive are the calls of the source. No cut-off for these calls is given here.

Experiments:
[1] = The compound was evaluated for sterilization effect on female Acanthocheilonema viteae in Mastomys natalensis; type: functional, Mus musculus; design: concentration or dose not given beside the values
[2] = In vivo microfilariacidal activity against Acanthocheilonema viteae infection in Mastomys natalensis at 200 mg/kg for 5 days after peroral administration; type: functional; settings: route oral
[3] = In vivo macrofilaricidal activity against Acanthocheilonema viteae infection in Mastomys natalensis at 200 mg/kg for 5 days after peroral administration; type: functional; settings: route oral
Mus musculus [4] = test: In vivo macrofilaricidal activity against Acanthocheilonema viteae infection in Mastomys natalensis at 200 mg/kg for 5 days after peroral administration; Inactive; type: functional, organism-based; design: dose 200 mg/kg
Mus musculus [5] = test: In vivo microfilariacidal activity against Acanthocheilonema viteae infection in Mastomys natalensis at 200 mg/kg for 5 days after peroral administration; Inactive; type: functional, organism-based; design: dose 200 mg/kg
Mus musculus [6] = species: Mus musculus; test: The compound was evaluated for sterilization effect on female Acanthocheilonema viteae in Mastomys natalensis; Inactive; type: functional, organism-based

Row | SMILES | Reduction [1] [%] | Reduction [2] [%] | Reduction [3] [%] | Reduction (Mus musculus [4]) | Reduction (Mus musculus [5]) | Reduction (Mus musculus [6])
1 | O=[N+]([O-])c1ccc(NNc2ccnc3cc(Cl)ccc23)cc1 | 50 | 41 | 78 | – | – | –
2 | Clc1ccc2c(NCCN3CCNCC3)ccnc2c1 | – | – | – | inactive | inactive | inactive
3 | CC(NC(=O)OC(C)(C)C)C(=O)N1CCN(CCNc2ccnc3cc(Cl)ccc23)CC1 (stereo not drawn) | – | – | – | inactive | inactive | inactive
4 | CC(C)(C)OC(=O)NC(Cc1ccccc1)C(=O)N1CCN(CCNc2ccnc3cc(Cl)ccc23)CC1 (stereo not drawn) | 50 | 0 | 0 | – | – | –
5 | O=[N+]([O-])c1cc2c(NCCO)ccnc2cc1Cl | 0 | 0 | 58 | – | – | –
6 | CC(N)C(=O)N1CCN(CCNc2ccnc3cc(Cl)ccc23)CC1 (stereo not drawn) | 100 | 0 | 0 | – | – | –
7 | OCCNc1ccnc2cc(Cl)ccc12 | 0 | 86 | 22 | – | – | –
8 | O=C(C1CCCN1)N1CCN(CCNc2ccnc3cc(Cl)ccc23)CC1 (stereo not drawn) | – | – | – | inactive | inactive | inactive
9 | O=C(O)C(CCCCNc1ccnc2cc(Cl)ccc12)Nc1ccnc2cc(Cl)ccc12 (stereo not drawn) | 0 | 85 | 0 | – | – | –
10 | Clc1ccc2c(NCc3ccco3)ccnc2c1 | – | – | – | inactive | inactive | inactive
11 | CC(C)(C)OC(=O)NCC(=O)N1CCN(CCNc2ccnc3cc(Cl)ccc23)CC1 | 63 | 0 | 0 | – | – | –
12 | O=[N+]([O-])c1ccc(OCCNc2ccnc3cc(Cl)ccc23)cc1 | – | – | – | inactive | inactive | inactive
13 | Clc1ccc2c(NCCN3CCN(c4ccccn4)CC3)ccnc2c1 | – | – | – | inactive | inactive | inactive
14 | CC(C)(C)OC(=O)N1CCCC1C(=O)N1CCN(CCNc2ccnc3cc(Cl)ccc23)CC1 (stereo not drawn) | – | – | – | inactive | inactive | inactive
15 | CCN(CC)C(=O)N1CCN(C)CC1.O=C(O)CC(O)(CC(=O)O)C(=O)O [DIETHYLCARBAMAZINE CITRATE] | 0 | 90 | 0 | – | – | –
16 | CCC(C)C(N)C(=O)N1CCN(CCNc2ccnc3cc(Cl)ccc23)CC1 (stereo not drawn) | – | – | – | inactive | inactive | inactive
17 | N#Cc1ccc(OCCNc2ccnc3cc(Cl)ccc23)cc1 | 0 | 0 | 56 | – | – | –
18 | CCC(C)C(NC(=O)OC(C)(C)C)C(=O)N1CCN(CCNc2ccnc3cc(Cl)ccc23)CC1 (stereo not drawn) | – | – | – | inactive | inactive | inactive
19 | ClCCNc1ccnc2cc(Cl)ccc12 | – | – | – | inactive | inactive | inactive
20 | NC(Cc1ccccc1)C(=O)N1CCN(CCNc2ccnc3cc(Cl)ccc23)CC1 (stereo not drawn) | – | – | – | inactive | inactive | inactive
21 | NCC(=O)N1CCN(CCNc2ccnc3cc(Cl)ccc23)CC1 | – | – | – | inactive | inactive | inactive
